Experimental data from patent US9994901B2, “Pro-inflammatory mediators in diagnosis and treatment of chronic obstructive pulmonary disease” (The Regents of the University of Colorado, priority 2012, dated 2018).

Experiments:
human PB monocytes = experiment: Human PB monocytes cultured on fibronectin 48 hrs, conditioned media ELISA (FIG. 3); format: cell-based; conditions: human PB monocytes (n=6) on fibronectin 48 hrs, PTA2 added; ELISA of conditioned media
Protocol: FIG. 3. […] Fibronectin (FN) induces pro-inflammatory mediator in human PB monocytes. Monocytes (n=6) were cultured on plastic (ctl) or fibronectin (FN) for 48 hrs. Pinane thromboxane A2 (PTA2), a thromboxane receptor antagonist, was added to some FN cultures. Conditioned media was analyzed for indicated mediators by ELISA. *P<0.05 Students two tailed t-test compared to plastic.
In particular, murine macrophages promote inflammation via a signaling pathway that depends on thromboxane receptor signaling and that is repressed by ARHGEF1. Monocytes from a healthy individual similarly promote inflammation, as indicated by MMP-9, TNFα and MCP-1 production, and this is inhibited by a (commercially available research grade) thromboxane receptor antagonist (FIG. 3).
To facilitate this analysis, we used an ELISA-based platform developed by Meso Scale Discovery (MSD), Gaithersburg, Md. USA (www.mesoscale.com) that allows a multiplex format for the analysis of pro-inflammatory cytokines, chemokines, and matrix metalloproteases. This platform relies on proprietary detection and patterned arrays in a 96-well format and that has an extremely large dynamic range enabling detection of these pro-inflammatory mediators from both biological samples (BAL fluid, serum, etc.) and tissue culture supernatant. An MSD plate reader (Sector Imager 2400) was used.

COPD patient monocytes = experiment: COPD patient peripheral blood monocytes cultured on fibronectin, IL-8 production (FIG. 15); format: cell-based, human
Protocol: FIG. 15. […] Graphically depicted are the results from treating human monocytes cultured on fibronectin with two different TP antagonist. […] Some fibronectin cultured cells were treated with the thromboxane receptor antagonist Pinane Thromboxane (PTA2). For PTA2 treatment, the concentration utilized is 7.5 μM.
Some fibronectin cultured cells were treated with the thromboxane receptor antagonist Pinane Thromboxane (PTA2). For PTA2 treatment, the concentration used was 7.5 μM.

Arhgef1-/- animals = experiment: Arhgef1-/- animals, inhalation of PTA2, BAL supernatant ELISA (FIG. 11); format: in vivo, mouse; conditions: ELISA 24 hr after a 1 hr inhalation exposure, vs vehicle
Protocol: FIG. 11. Panels A and B graphically depict the measurement of BAL pro-inflammatory mediators by ELISA in Arhgef1 deficient animals treated by inhalation of PTA2 or vehicle. […] Pro-inflammatory mediators were measured in BAL supernatant 24 hr after a 1 hr inhalation exposure to either vehicle (black bars on left sides, n=16) or PTA2 (grey bars on right sides, n=3).
(§1) Treatment with a thromboxane receptor antagonist decreases the expression of pro-inflammatory mediators.

Arhgef1-/- mice = Arhgef1-/- mice treated with TP antagonist, RT-PCR of BAL cells and lung tissue (FIGS. 9, 10); format: in vivo, mouse; conditions: time course, single dose
From the text: Arhgef1 is an intracellular signaling molecule which has been shown specifically to modulate signaling from Gα12/13 coupled receptors. […] We have identified that thromboxane receptor signaling is required for fibronectin induced MMP-9 expression in wild type and Arhgef1-deficient cells. Treatment of Arhgef1-deficient mice with a thromboxane receptor antagonist results in a consistent and reproducible reduction in MMP-9 expression and activity in the pulmonary compartment. […] Importantly treatment with a thromboxane receptor antagonist decreased expression of all of these mediators in the Arhgef1-deficient lungs. These findings were unexpected.
as §1

human monocytes = experiment: Human monocytes cultured on fibronectin, IL-6 by ELISA (FIG. 12); format: cell-based; conditions: FN+20 mM aspirin vs FN
From the text: Experiments summarized in the top of FIG. 12 show culture of human monocytes on fibronectin (FN) induces several pro-inflammatory mediators as measured by ELISA.

In the case of `CCCCC[C@@H](O)/C=C/[C@H]1C[C@H]2C[C@@H]([C@@H]1C/C=C\CCCC(=O)O)C2(C)C` (relative stereo) [PTA2, (1S-(1alpha,2beta(Z),3alpha(1E,3S*),5alpha))-7-(3-(3-Hydroxy-1-octenyl)-6,6-dimethylbicyclo(3.1.1)hept-2-yl)-5-heptenoic acid], the “FN induced MCP-1” value (human PB monocytes) is reported as “dependent on TP signaling”, the “FN induced TNF-” value (human PB monocytes) is reported as “dependent on TP signaling” and the IL-8 production (COPD patient monocytes; monocytes from 3 COPD patients on fibronectin, PTA2 7.5 μM) is reported as “reduce IL-8 production”. For the same compound, the “production of several pro-inflammatory mediators in BAL supernatant” value (Arhgef1-/- animals) was “reduces production of several pro-inflammatory mediators”.

With `Cc1c(CC(C)(C)C(=O)O)n(Cc2ccc(Cl)cc2)c2ccc(F)cc12` [L655, 1-[(4-Chlorophenyl)methyl]-5-fluoro-α,α,3-trimethyl-1H-indole-2-propanoic acid] the “expression of several pro-inflammatory mediators, RT-PCR of BAL cells” value (Arhgef1-/- mice) was “decreases expression of several pro-inflammatory mediators” and the “expression of several pro-inflammatory mediators, RT-PCR of lung tissue” value (Arhgef1-/- mice) was “decreases expression of several pro-inflammatory mediators”.

For `CC1=C(C)C(=O)C(C(CCCCCC(=O)O)c2ccccc2)=C(C)C1=O` (centres unmarked) [Seratrodast, 7-phenyl-7-(2,4,5-trimethyl-3,6-dioxocyclohexa-1,4-dien-1-yl)heptanoic acid], the IL-8 production (COPD patient monocytes; monocytes from a COPD patient on fibronectin, Seratrodast 0.448, 2.24, 11.2 μM) was “reduce IL-8 production”.

`CC(=O)Oc1ccccc1C(=O)O` [aspirin] was tested, and the “FN induced IL-6 production” value (human monocytes) was “reduced”.
